# Like-named read-outs stand apart in the source and are kept apart here.
# Experiments:
# MTH1 [1] = target: T1, MTH1 (Homo sapiens, UniProt P36639); test: MTH1 enzymatic inhibition, malachite green colorimetric assay; format: biochemical
# Experimental: MTH1, inorganic pyrophosphatase, and dGTP (Thermo Fisher Scientific, Waltham, MA, USA) were diluted in assay buffer containing 100 mM Tris-acetate at pH 8.0, 40 mM NaCl, 10 mM Mg-acetate, 0.005% Tween 20, and 1 mM DTT. Briefly, serial dilutions of compounds were dissolved in assay buffer; meanwhile, MTH1 was diluted to 4 μg/mL, and then these two solutions were mixed and filled with buffer to 186 µL. After 15 min incubation at 25 °C, 10 µL dGTP (final concentration […]) and 4 µL inorganic pyrophosphatase (final concentration 0.2 U/mL) were added to start the reaction. The reaction mixture was incubated with shaking for 45 min at 25°C. Finally, 50 µL of malachite green assay reagent was added and incubated with shaking for 15 min at 25 °C. The absorbance of the assay plate was read at 630 nm using a Multiskan GO Microplate Spectrophotometer (Thermo Fisher Scientific, Waltham, MA, USA) and IC50 values were calculated using GraphPad Prism 9.5.1 Software.
# MCF−7 cells [2] = test: MTT cell viability/proliferation assay, MCF−7; format: cell-based; conditions: Homo sapiens; for IC50: read-out: IC50 against MCF−7 cell proliferation (mean ± SD); for inhibition at 200 µM: compound concentration 200 μM, read-out: Inhibition (%) (Mean ± SD) of MCF−7 cell proliferation
# Experimental: (§1) Human breast cancer cell lines (MCF-7: ER+, PR+, HER2-, EGFR+, MB-MDA-MB-231: […] All cells were cultured in suitable medium supplemented with 10% fetal bovine serum (FBS; […] Biotechnology Co., Ltd., Hangzhou, China), 100 U/mL penicillin, and 100 μg/mL streptomycin (Invitrogen, Carlsbad, CA, USA) at 37 °C in 5% CO2. MCF-7, MB-MDA-MB-231, HEK-293F, and HUVEC were grown in Dulbecco's modified Eagle's medium (DMEM; […] Subsequently, cells were treated with compound or vehicle (maximum 0.3% DMSO). After 48 h, cells were treated with MTT; the absorbance of the assay plate was read at 490 nm using a Multiskan GO Microplate Spectrophotometer (Thermo Fisher Scientific, Waltham, MA, USA).
# 4T1 breast cancer tumor = 4T1 breast cancer tumor model in Balb/c mice; conditions: for Ki67 expression / tumor cell proliferation in tumors / body weight compared to the control group: MA−24 60 mg/kg; for body weight compared to the control group: TH287 200 mg/kg i.p. every three days
# Experimental: All animal experiments were carried out in accordance with a protocol approved by the Animal Ethics Committee of the China Pharmaceutical University. Female BALB/C mice were given food and water ad libitum. Approximately 7-week-old mice were injected subcutaneously with 2 × 10^5 4T1 cells in the left flank. When the mean tumor size reached 30~50 mm^3, vehicle (composed with 1% DMSO, 10% ethanol, 10% Chremophor EL, and 10% Tween-80, diluted with PBS), MTH1 inhibitor (MA−24 at 60 mg/kg or TH287 at 200 mg/kg), or 5-FU (30 mg/kg) was administered intraperitoneally every three days. Tumor size and body weights were measured twice weekly starting on the first day of treatment. Moreover, to minimize animal suffering, euthanasia by cervical dislocation was performed when the maximum diameter of the tumors exceeded 1 cm.
# MDA-MB-231 cells = test: MTT cell viability/proliferation assay, MDA-MB-231; format: cell-based; conditions: Homo sapiens, read-out: IC50 on MDA-MB-231 proliferation (mean ± SD)
# Experimental: as §1
# 4T1 cells = test: MTT cell viability/proliferation assay, 4T1; format: cell-based, murine; conditions: Mus musculus, read-out: IC50 on 4T1 proliferation (mean ± SD)
# Experimental: as §1
# HUVEC cells = test: MTT cell viability/proliferation assay, HUVEC (immortalized); format: cell-based; conditions: Homo sapiens, 48 h, read-out: IC50 on HUVEC proliferation (mean ± SD)
# Experimental: as §1
# HEK-293F cells = test: MTT cell viability/proliferation assay, HEK-293F (immortalized); format: cell-based; conditions: HEK293F, 48 h, read-out: IC50 on HEK-293F proliferation (mean ± SD)
# Experimental: as §1
# CHO cells = test: MTT cell viability/proliferation assay, CHO (immortalized); format: cell-based; conditions: Cricetulus griseus, 48 h, read-out: IC50 on CHO proliferation (mean ± SD)
# Experimental: as §1
# MTH1 [3] = target: T1, MTH1; test: Kinetic analysis of MTH1 inhibition (reciprocal plot); format: biochemical; conditions: consistent 1/Vmax
# MTH1 [4] = target: T1, MTH1; test: Target engagement by cellular thermal shift assay (CETSA) in MCF−7 cells; format: cell-based; conditions: 50 μM, 4.5 h, 42 to 75 °C
# Experimental: MCF−7 cells cultured in 6-well plates for 24 h were exposed to vehicle (0.5% DMSO) or 50 μM TH287 or MA−24 for 4.5 h. After trypsinization cells were detached, spun down and resuspended in PBS. Eight equational cells were heated for 3 min from 42 to 75 °C, and then lysed using RIPA lysis buffer. Western blot analysis was used to analyze the amounts of stabilized MTH1 using the MTH1 antibody.
# MCF−7 cells [5] = test: Western blot of apoptosis and p38 MAPK proteins in MCF−7 cells; format: cell-based, human; conditions: for expression of p38: high concentrations
# Excerpt: Total protein was obtained using RIPA lysis buffer (Beyotime Biotechnology, Shanghai, China) supplemented with phenylmethanesulfonyl fluoride (Beyotime Biotechnology, Shanghai, China), separated by SDS-PAGE, and transferred to the PVDF membrane by electroblotting (Bio-Rad, Hercules, CA, USA) followed by blocking with 5% milk in TBST. MTH1 antibody (Cat.No.ab200832, Abcam, Eugene, OR, USA), β-actin antibody (Cat.No.ab8227; Abcam, Eugene, OR, USA), ccaspae-3 antibody (Cat.No.14220, CST, Boston, USA), cleaved caspase-3 antibody (Asp175) (Cat.No.9664, CST, Boston, MA, USA), cleaved PARP antibody (Asp214) (Cat.No.95696, CST, Boston, MA, USA), p38 (Cat.No.9212, CST, Boston, MA, USA), and phospho-p38 MAPK (Thr180/Tyr182) (Cat.No.9211, CST, Boston, MA, USA) were used at a dilution of 1:1000–1:5000. Upon addition of primary and HRP-conjugated secondary antibodies, blots were detected using an ECL substrate (Thermo Fisher Scientific, Waltham, MA, USA) and the Tanon 5200 Chemiluminescent Imaging System (Tanon, Shanghai, China).
# [6] = design: method as in PMID 25459754; conditions: intraperitoneal injection, cited from earlier work
# [7] = design: method as in PMID 24695224; conditions: in vitro studies; cited from earlier work
# MCF−7 cells [8] = test: Alkaline comet assay in MCF−7 cells; format: cell-based, human; conditions: 10 μM, 2 days
# Experimental: MCF−7 cells (300,000 cells) were plated in 6-well plates and incubated for 24 h at 37 °C and 5% CO2. Subsequently, cells were treated with a compound (10 μM MA−24 and TH287) or vehicle (0.1% DMSO) for 2 days or with 150 μM for 10 min on ice. Cells were harvested as above. After washing twice with PBS, cells were re-suspended in PBS. Then, the 30 μL cell suspension was mixed with 150 µL 1.2% low-melting agarose that was maintained at 37 °C. The mixture was layered onto pre-warmed (37 °C) agarose-coated glass slides. The slides were kept on ice for 10 min and incubated in lysis buffer (10 mM Tris pH 7.7, 2.5 M NaCl, 0.1 M EDTA, 1% DMSO, and 1% Triton X-100) at 4 °C overnight in the dark. Slides were washed twice with enzyme reaction buffer (40 mM HEPES pH 8.0, 0.1 M KCl, 0.5 mM EDTA, and 0.2 mg/mL BSA) and incubated with Fpg […] (8 U/mL, New England Biolabs, Shanghai, China) at 37 °C for 45 min. Slides were washed once with enzyme reaction buffer and incubated in alkaline electrophoresis buffer (50 mM NaOH, 1 mM EDTA, and 1% DMSO) for 20 min. […] Images were acquired with a fluorescence microscope (Olympus Corporation, Tokyo, Japan) and quantified using Comet Score software, Version 1.5. At least 100 comets per sample were analyzed. Tail moment is calculated as the percentage of DNA in the tail multiplied by the tail length.
# [9] = malachite green staining assay, dGTP substrate, read-out: IC50 to MTH1 (mean ± SD)
# [10] = 5-FU 30 mg/kg i.p. every three days, 4T1 tumor
smiles,measurement,setting,value
CNc1cc(NCCc2ccc(F)cc2)nc(N)n1 [MA−25],IC50,MTH1 [1]; [9],0.01374 ± 0.0001 µM
same,IC50,"MCF−7 cells [2]; MCF7, MTT assay, 48 h",82.3 ± 1.02 µM
same,inhibition at 200 µM,"MCF−7 cells [2]; MCF7, MTT assay",100 ± 0.1%
"O=c1[nH]cc(F)c(=O)[nH]1 [5-FU, 5-fluorouracil]",tumor growth inhibition rate,"4T1 breast cancer tumor; 30 mg/kg intraperitoneally every three days, 4T1 tumor",81.9%
same,toxicity: mouse mortality,4T1 breast cancer tumor; 5-FU 30 mg/kg i.p. every three days,mouse mortality starting from the 16th day of treatment
same,Ki67 expression / tumor cell proliferation in tumors,4T1 breast cancer tumor; [10],inhibitory effect on tumor cell proliferation
"CNc1cc(-c2cccc(Cl)c2Cl)nc(N)n1 [TH287, reference compound]",IC50,MTH1 [1],0.00316 ± 3e-05 µM
same,IC50,"MCF−7 cells [2]; MCF7, 48 h",3.55 ± 0.27 µM
same,IC50,"MDA-MB-231 cells; MDA-MB-231, 48 h",1.92 ± 0.34 µM
same,IC50,"4T1 cells; 4T1, 48 h",5.9 ± 1.02 µM
same,IC50,HUVEC cells,≥ 25 µM
same,IC50,HEK-293F cells,≥ 25 µM
same,IC50,CHO cells,≥ 25 µM
same,tumor growth inhibition rate,"4T1 breast cancer tumor; 200 mg/kg intraperitoneally every three days, 4T1 tumor",20.4%
same,body weight compared to the control group,4T1 breast cancer tumor,no statistically significant differences
same,type of inhibition on MTH1 with respect to dGTP,MTH1 [3],competitive inhibition type
same,thermal stabilization of MTH1 (CETSA),MTH1 [4],increase the thermal stability of the MTH1 protein
same,expression of p38,MCF−7 cells [5],significantly reduce the expression of p38
same,"blood drug concentration at 2, 3, and 4 h","[6]; 5mg/kg, 2, 3, and 4 h",below the detection limit
same,blood drug concentration at 1 h,"[6]; 5mg/kg, 1 h",1000 nM
same,stability in vitro compared to TH588,[7],poorer stability
CNc1cc(NCCc2ccc(C)cc2)nc(N)n1 [MA−24],IC50,MTH1 [1]; [9],0.0104 ± 0.00028 µM
same,IC50,"MCF−7 cells [2]; MCF7, MTT assay, 48 h",23.9 ± 0.95 µM
same,inhibition at 200 µM,"MCF−7 cells [2]; MCF7, MTT assay",99.6 ± 0.4%
same,IC50,"MDA-MB-231 cells; MDA-MB-231, MTT assay, 48 h, cancer cell line",48.4 ± 0.68 µM
same,IC50,"4T1 cells; 4T1, MTT assay, 48 h, cancer cell line",14.8 ± 1.42 µM
same,IC50,"HUVEC cells; MTT assay, immortalized cells",≥ 75 µM
same,IC50,"HEK-293F cells; MTT assay, immortalized cells",≥ 75 µM
same,IC50,"CHO cells; MTT assay, immortalized cells",≥ 75 µM
same,tumor growth inhibition rate,"4T1 breast cancer tumor; 60 mg/kg intraperitoneally every three days, 4T1 tumor",61.8%
same,lung metastasis,"4T1 breast cancer tumor; MA−24 60 mg/kg i.p. every three days, 4T1 tumor",reduced lung metastasis
same,Ki67 expression / tumor cell proliferation in tumors,4T1 breast cancer tumor; [10],moderate reduction in Ki67 expression
same,body weight compared to the control group,4T1 breast cancer tumor,no statistically significant differences
same,type of inhibition on MTH1 with respect to dGTP,MTH1 [3],competitive inhibition type
same,thermal stabilization of MTH1 (CETSA),MTH1 [4],prominent thermal stabilization
same,DNA strand breaks (comet assay),MCF−7 cells [8],significantly increased DNA strand breaks
same,expression of cleaved-caspase 3 and cleaved PARP,MCF−7 cells [5]; 30 μM,upregulation of cleaved-caspase 3 and cleaved PARP
same,expression of p38,MCF−7 cells [5],significantly reduce the expression of p38

# — paper PMC10974945, “Targeting MutT Homolog 1 (MTH1) for Breast Cancer Suppression by Using a Novel MTH1 Inhibitor MA−24 with Tumor-Selective Toxicity” (Pharmaceuticals, 2024)
